# Results: patent US8957086B2, “Compounds and methods of treating brain disorders” (The Board of Trustees of the University of Illinois, priority 2010, dated 2015)
# Entries after “also recorded” stand apart in the source; their conditions may differ.
# Legend:
# [1] = Stability in phosphate buffer (pH 7.4) monitored using HPLC; format: physicochemical; conditions: pH 7.4, HPLC
# Source text: The stability of compounds of structural formula (II) in phosphate buffer (pH 7.4) was monitored using HPLC.
# [2] = Brain penetration in WT mice after i.p. injection, LC-MS (MRM); format: in vivo; conditions: i.p. 1 mg/kg, S/N ratio
# Method: Compounds of structural formula (II), i.e., GN-29 and GN-205, were tested for an ability to penetrate the brain. WT mice were given an i.p. injection at a dose of 1 mg/kg, which is equivalent to transgenic mice studies. The presence of drugs in brain tissue was measured by LC-MS using MRM methods.
# LaFerla 3×Tg AD Mice = assay: STPA latency in LaFerla 3×Tg AD mice after 11 week treatment; format: in vivo; conditions: for latency after 24 h in STPA: 11 week treatment
# TNF-α = TNF-α ELISA on cortical/hippocampal protein homogenates of LaFerla 3×Tg AD mice; format: in vivo; conditions: 11 week treatment
# Source text: (§1) Amyloid load also was reduced by drug treatment (data not shown).
# [3] = system: CREB phosphorylated at serine 133; assay: CREB phosphorylated at serine 133 in LaFerla 3×Tg AD mice; format: in vivo; conditions: 11 week treatment
# Source text: as §1
# [4] = system: primary rat glial cultures; assay: Attenuation of inflammatory response (nitrite production, Griess assay) in LPS-treated primary rat glial cultures; format: cell-based; conditions: primary rat glial cells, LPS/OGD, nitrite by Griess assay
# Method: Attenuation of cytokine and inflammatory response by compounds of structural formula (I) were measured by induction of NOS reflected by inhibition of nitrite production in LPS/IFNγ treated primary rat glial cultures.
# Primary mixed glia cultures were obtained as described previously (Vairano et al., 2002). Briefly, 1-2 day old Sprague Dawley rat pups were used to prepare primary mixed glial cultures. Cortices were dissected and meninges were removed. Tissues were cut into small pieces and transferred into PBS (without Ca^2+ and Mg^2+) containing 0.125% Trypsin and DNAse 35500 KU/ml, then incubated at 37° C. for 20 min. The cells were dissociated mechanically resuspended in DMEM (10% FBS), then grown in a T-75 flask. After 11-13 days in culture, the cells were replated at 2×10^5 cells/cm^2 in 96-well plates. Cells were used the next day.
# Primary cultured cortical glia were incubated with LPS ([…]) in deoxygenated, glucose-free solution, pH 7.4, containing the following (in mM): NaCl 116, CaCl2 1.8, MgSO4 0.8, KCl 5.4, NaH2PO4 1, NaHCO3 14.7, HEPES 10. The cells were placed in a humidified 37° C. incubator (95% N2, 5% CO2) for 2 hours, then conditioned DMEM media containing LPS or PBS were given back to the cells. The tested compounds ([…]) or MAPK inhibitor (SB203580, […]) were present during and after the OGD. […] Cell viability was measured later by MTT assay. […]
# scopolamine treated mice = assay: Step through passive avoidance (STPA) in scopolamine treated mice; format: in vivo; conditions: i.p.
# Source text: The scopolamine treatment results in mice having an attenuated cognitive function. STPA (step through passive avoidance task) is widely used to test long-term memory. The STPA apparatus consists of a two-compartment acrylic box with an illuminated side (15×12×12 cm) connected to a dark side (15×12×12 cm) by a vertical door. The dark side is equipped with an electric grid floor. During the habituation, animals were habituated to the normal behavior of rapidly translocating to the dark from the light side, where they were initially placed. Habituation trials are continued until latency of entering the dark side for each animal is less than 30 seconds. Animals that cannot pass this screening phase are excluded from the study. During the training, animals were trained by receiving an aversive electrical shock (0.5 mA, 2 sec), triggered by entry to the dark compartment, until the latency of entering the dark side reach 300 seconds. At 24 and 72 hours post-training, the animals again are individually placed in the light compartment and the latency to enter the dark compartment, without shock stimulus, is recorded. Statistical analysis of the latency data was performed with one-way ANOVA followed by Bonferroni multiple comparison test. For STPA tests using naïve animals, each animal was administered two ip injections. […]
# [5] = system: primary rat cortical neuron cultures; assay: Neuroprotection in primary rat cortical neuron cultures subjected to oxygen-glucose deprivation (OGD), MTT and LDH; format: cell-based; conditions: primary cultured rat cortical neurons, OGD 2 h + 24 h reoxygenation, 50 μM
# Method: Neuroprotection by compounds of structural formula (I) in neurons using oxygen-glucose deprivation (OGD) followed by recovery for 24 hours in primary rat cortical neuron cultures, measured by LDH release and MTT viability was determined (FIG. 1).
# Test compounds are compared to vehicle controls and the known neuroprotective agent CMZ. DMSO is dimethyl sulfoxide. Neuroprotection is represented by (i) a high cell viability relative to control as measured by the MIT assay and (ii) a low LDH activity as measured by assay of LDH. The abscissa in FIGS. 1A and 1B identify the compounds tested by GN number. The structures of AR-OH (also referred to as #00) and AR-N3 (also referred to as #9 or GN-9) are provided above. The structure of AR (also referred to as #10) and CMZ are as follows: […]
# FIG. 1A illustrates the evaluation of neuroprotection in primary neurons subject to transient OGD assayed by MTT. […] Cell viability was measured 24 hours after reperfusion by MTT assay. Cell viability percentage was calculated relative to 100% protection from CMZ against OGD-reperfusion injury. […]
# FIG. 1B illustrates the evaluation of neuroprotection in primary rat neurons subject to transient OGD assayed by LDH. […] Cell viability was measured 24 hours after reperusion by […]. Cell viability percentage was calculated relative to 100% cytoxicity from OGD-reperfusion in the presence of vehicle (DMSO). […]
# [6] = system: primary cortical cultures treated with human Aβ1-42; assay: Neuroprotection in primary neurons treated with Aβ42 oligomers, with picrotoxin preincubation (MTT, LDH); format: cell-based; conditions: 100 μM picrotoxin 1 h preincubation, test compounds 50 μM, Aβ1-42 250 nM, 5 days
# Method: FIGS. 3A and 3B illustrate neuroprotection in response to amyloid neurotoxicity afforded by compounds of structural formula (I). FIGS. 3A and 3B show neuroprotection in primary neurons treated with Aβ42. In particular, primary cortical cultures at 10-11 DIV were preincubated with 100 μM of picrotoxin for one hour, then perfused with test compounds at 50 μM. Soluble oligomers of human Aβ1-42 then were added at a physiologically relevant concentration of 250 nM. Cultures then were incubated for 5 days, after which time MTT and LDH assays were performed. Results were normalized to untreated DMSO and treated DMSO and statistical analysis was performed with ANOVA, with post-hoc Dunnet's MCT comparing to untreated DMSO, […], ***=p<0.001. Picrotoxin acts as a noncompetitive antagonist for the GABAA receptor chloride channels. It is therefore a channel blocker rather than a receptor antagonist.
compound,measurement,setting,value
Cc1ncsc1C(NC(=O)OCCCCO[N+](=O)[O-])c1ccccc1 (stereo not shown) [GN-203],stability in phosphate buffer,[1],excellent stability
Cc1ncsc1C(CO[N+](=O)[O-])n1cc(-c2cccnc2)nn1 (stereo not shown) [GN-205],presence in brain tissue (bioavailability in the brain),[2],highly bioavailable in the brain
Cc1ncsc1C(OCCOCCO[N+](=O)[O-])c1ccccc1 (stereo not shown) [GM-30],stability in phosphate buffer,[1],excellent stability
"Cc1ncsc1CC[N+](=O)[O-] [GT-1061, reference compound]",latency after 24 h in STPA,LaFerla 3×Tg AD Mice,248 ± 35 s
same,levels of TNF-α,TNF-α,2.18±0.34 μg/mg protein
same,levels of CREB phosphorylated at serine 133,[3],1.07±0.11 units/mg protein
Cc1ncsc1C(CO[N+](=O)[O-])c1ccccc1 (stereo not shown) [GN-29],presence in brain tissue (bioavailability in the brain),[2],highly bioavailable in the brain
same,latency after 24 h in STPA,LaFerla 3×Tg AD Mice,277 ± 14 s
same,cognitive deficit in the transgenic mouse model,LaFerla 3×Tg AD Mice; in words,reverses a cognitive deficit
same,levels of TNF-α,TNF-α,1.70±0.09 μg/mg protein
same,levels of CREB phosphorylated at serine 133,[3],1.2±0.16 units/mg protein
Cc1ncsc1C(NC(=O)C1(CO[N+](=O)[O-])CC1)c1ccccc1 (stereo not shown) [GN-44],stability in phosphate buffer,[1],excellent stability
Cc1ncsc1C(c1ccccc1)n1cc(-c2cccnc2)nn1 (stereo not shown) [GN-12],attenuation of inflammatory response,[4],attenuation of inflammatory response; also recorded: superior neuroprotective and anti-neuroinflammatory activities
same,reversal of cognition deficit (STPA),scopolamine treated mice,reverse a cognition deficit
same,neuroprotection,[5],substantial neuroprotection; also recorded: superior neuroprotective and anti-neuroinflammatory activities
picrotoxin,effect of picrotoxin on neuroprotection by test compounds,[6],blocks the neuroprotective actions of the test compounds
